A short description of series [1]: Solubility of dihydromyricetin nanocrystals and API (solubility in cold water). The format is physicochemical. The following applies: for solubility: cold water. An excerpt: 1. The Effect of Stabilizers on the Particle Size and Solubilization Effect of the Dihydromyricetin Nanocrystals, See Table 1.
Series [2] is described as follows: Particle size of dihydromyricetin nanocrystals. In kind it is physicochemical. The conditions noted are these: API. On the procedure:
In order to describe the dihydromyricetin nanocrystals provided by the disclosure, the relevant properties of the embodiments 1 to 6 and the comparative embodiments are measured. 1. The Effect of Stabilizers on the Particle Size and Solubilization Effect of the Dihydromyricetin Nanocrystals, See Table 1.

Values after ≈ are worked out from the molar mass of the structure shown.

In general, solubility refers to the dissolved amount per volume that the medium holds.

For `O=C1c2c(O)cc(O)cc2O[C@H](c2cc(O)c(O)c(O)c2)[C@H]1O` [Dihydromyricetin API, Dihydromyricetin], the solubility in series [1] (aqueous with cosolvent or surfactant or cyclodextrin, stabilizer sodium dodecyl sulfate (SDS)) came to 0.3 mg/mL (≈ 937 µM); in series [1] (water, no stabilizer (/)), 0.04 mg/mL (≈ 125 µM). Moreover, the “Solubility in cold water” value in series [1] (stabilizer Tween-80) is given as 0.6 mg/mL (≈ 1870 µM). The compound also came in with a Particle size in series [2] not below 12 μm.
